Reference: patent US9274101B2 (BIOLOG, Inc., priority 2001, dated 2016)

Experiments:
[1] = tested on: ten strains of E. coli; format: cell-based, Escherichia coli; also: key: +: indicates that the organism tested was capable of utilizing the carbon source listed; −: indicates that the organism tested was not capable of utilizing the carbon source listed; indicates weak positive reactions
[2] = tested on: HepG2 cells; assay: HepG2 cells cultured on CYTODEX 3 microcarriers, energy sources; format: cell-based, human; details: Homo sapiens, HepG2, 68 h, read-out: Responses of HepG2 Cells Cultured on Microcarriers After 68 hours in Culture and a 4 hour Color Development Period; for activity at 30 µM: Conc. 0.03 mM; for activity at 100 µM: Conc. 0.10 mM; for activity at 330 µM: Conc. 0.33 mM; for activity at 1000 µM: Conc. 1.00 mM; for activity at 3300 µM: Conc. 3.3 mM; for activity at 10000 µM: Conc. 10 mM; for activity at 15000 µM: Conc. 15 mM; for activity at 20000 µM: Conc. 20 mM
Procedure: In this Example, methods for testing adherent cells cultured in suspension, for their ability to use multiple carbon sources are described. HepG2 cells were cultured as described in Example 30.
HepG2 cells were harvested by trypsinization for 3 minutes in 0.25% trypsin-1 mM EDTA and resuspended in an equal volume of culture medium. A viable cell count was obtained by trypan blue exclusion and the appropriate volume of the cell suspension to have 2.7×10^6 cells/0.1 gm CYTODEX 3 (Sigma C3275) microcarrier beads was determined. Microcarrier beads had been previously prepared by 1) rehydration in calcium-magnesium free (CMF) DPBS for 3 hours, 2) autoclaving for 15 minutes, and 3) washing twice in MEM without serum. The cell suspension was added to the beads in a 50 mL tube, and the volume adjusted to 5 mL. Cells were allowed to attach for 1 hour in an atmosphere of 5% CO2, 90-100% humidity, and 37° C., with resuspension every 15 minutes. The microcarriers were transferred to a 100×15 mm Petri dish in a total volume of 20 mL. Cultures were maintained as stationary cultures until used for assay.
The thixotropic suspending agent, methylcellulose (1500 cps, Sigma M0555), was included in the medium to keep the microcarriers suspended so that they could be accurately pipetted. The methylcellulose was prepared by autoclaving in 20 mL tissue culture water for 30 minutes, then mixing by shaking for 1 hour. The initial concentration of methylcellulose was […]. The methylcellulose was then diluted 1:1 in 2× DME with or without glucose, then supplemented with 10% HI FBS; this yields a methylcellulose concentration of 1.36%. Beads were transferred to a 50 mL tube, allowed to settle and resuspended in DPBS. The washed beads were then resuspended in DME with 10% HI FBS and penicillin-streptomycin but without glucose, L-glutamine, sodium pyruvate, or phenol red. An equal volume of 1.36% methylcellulose was added and mixed by pipetting.
For the assay, 70 μL of DME with 10% HI FBS and penicillin-streptomycin but without glucose, L-glutamine, sodium pyruvate, or phenol red were added to each well, followed by 30 μL of the appropriate dilution of each test energy source. Stocks of 133 mM of each test chemical were prepared in tissue culture grade water, sterile filtered, and dilutions were prepared in a master plate so that, upon dilution into a regular 96-well MICROPLATE a total well volume of 200 μL, the final concentrations would be 0.033 to 20 mM. Negative control wells received 30 μL of tissue culture grade water. One hundred μL of beads were pipetted into each well. For each plate containing energy sources and cells, a second, control plate containing only energy sources was prepared. Plates were incubated at 5% CO2, 90-100% humidity, and 37° C. for 68 hours prior to addition of the MTS/MPMS colorometric reagent (10 μL/well). The color formed in each well 4-8 hours after addition of the colorimetric reagent, was measured with a plate reader at 490 nm with a reference wavelength of 650 nm. OD values from the control plate were subtracted from the OD values obtained with cells prior to normalizing the data to % negative control (cells without added energy source).

[3] = tested on: HL-60 cells; assay: HL-60 cells in PM1 and PM2 plates, MTS/MPMS color, % negative control; format: cell-based, human; details: for response of HL-60 cells: in the presence of added pyruvate
[4] = tested on: Salmonella typhimurium auxotrophs hisF645 and pyrCΔ73; format: cell-based
[5] = tested on: A549 cells; assay: Substrate utilization by A549 cells at increasing serum, with and without free amino acids; format: cell-based; details: varying FCS, presence and absence of free amino acids (FIG. 11)
Procedure: Briefly, A549 cells were suspended in RPMI-salts+RPMI-vitamins+1× Pen/Strep with or without RPMI-amino acids at 400,000 cells/mL and dispensed in 50 uL to wells containing a testing substrates (e.g., inosine, pyruvic acid, glucose, L-glutamine, L-arginine, etc.) and FCS to achieve the indicated final concentrations. The cells were incubated for 2 days at 37° C. under 5% CO2-95% air (pre-incubation phase), before a redox dye mix was added. The cells were incubated for an additional 5 hr at 37° C. under 5% CO2-95% air (incubation phase), before color development was measured.

[6] = tested on: E. coli MG1655; format: cell-based, Escherichia coli
[7] = tested on: E. coli MG1655; format: cell-based, Escherichia coli; remark: listed apart in the source
[8] = tested on: Saccharomyces cerevisiae (BY4741); assay: Nutrient stimulation in EA MICROPLATE without methionine; format: cell-based; details: medium without methionine, 30° C., 2 days
[9] = tested on: TK-1 cells; assay: TK-1 cells in PM1 and PM2 plates, with or without 0.5 mM sodium pyruvate; format: cell-based, mouse; details: in the presence of 0.5 mM sodium pyruvate
Procedure: In this Example, methods for testing a murine T lymphoma cells (Butcher et al., Eur. J. Immunol., 10:556-561 [1980]), for their ability to use multiple carbon sources are described. The methods used to culture the TK-1 lymphoma cell line were similar to those used to culture HL-60 cells, as described in Example 27.
TK-1 cells were grown in Falcon tissue culture flasks with vented tops. Culture medium was RPMI 1640 medium (Invitrogen 11875) with 4.5 g/L glucose, 2 mM L-glutamine, 1 mM sodium pyruvate, 0.1 mM nonessential amino acids (NEAA), 0.05 mM 2-mercaptoethanol (2ME), 2 g/L sodium bicarbonate, 5 mg/L phenol red, 50 U/mL penicillin, 50 μg/mL streptomycin, and 10% (v/v) heat inactivated fetal bovine serum (HI FBS, Invitrogen 16140). The cells were seeded at 3×10^5/mL, subcultured at 3 days after initiation of culture to 10^6 cells/mL and used 24 hours later. During all incubations, the cells were kept in an atmosphere of 5% CO2, 90-100% humidity, and 37° C.
A viable cell count was obtained by trypan blue exclusion and an appropriate volume of the cell suspension was placed in a polypropylene centrifuge tube. The cells were washed in DPBS and then resuspended to two-thirds the final volume needed in Dulbecco ? s Modified Eagle ? s Medium (DME, Sigma D5030) with the supplements listed in Table 17, as well as 2-ME, sodium pyruvate and NEAA, and including 10% HI FBS, but without glucose, L-glutamine, sodium pyruvate, and phenol red. This medium is termed DME-RTK. An aliquot was counted by trypan blue exclusion and the cell density was adjusted to 1×10^6/mL. Fifty μL of DME-RTK were added to each well of the appropriate number of half area, 96-well plates (PM1 and PM2 MICROPLATE testing plates). The cells were divided into two lots and one lot received a 1/100 dilution of 100 mM sodium pyruvate (final concentration, 0.5 mM). Cells from both lots were plated at a final cell density of 5×10^4/well (50 μL/well). For each plate containing chemicals and cells, a second, control plate containing only chemicals was prepared. Plates were incubated at 5% CO2, 90-100% humidity, and 37° C. for 1 hour prior to addition of the MTS/MPMS colorimetric reagent (5 μL/well). The color formed in each well 24 hours after addition of the colorimetric reagent, was measured with a plate reader at 490 nm with a reference wavelength of 650 nm. OD values from the control plate were subtracted from the OD values obtained with cells prior to normalizing the data to % negative control.

[10] = tested on: IMR-90 cells; assay: Testing of IMR-90 cells in PM1a testing plates; format: cell-based; details: for cellular morphology (microscopic): approximately 4.5 hours at 37° C.
Procedure: IMR-90 cells were cultured in DMEM in 150 mm diameter petri dishes to near confluence under suitable conditions (e.g., 5% CO2, at 37° C.). The cells were harvested from 19 petri dishes, using the standard trypsin-EDTA procedure to detach the cells (i.e., 5 minute treatment with trypsin-EDTA), pooled and centrifuged at 1000×g for 5 minutes at 2-8° C., and resuspended in HBSS without phenol red. The cells were again centrifuged and resuspended in 24 ml inoculating fluid (IF-h). The cell density as determined by measurement using a Coulter Counter was about 3,000,000 cells/ml. Two-fold serial dilutions were prepared using prewarmed inoculating fluid, by mixing 12 ml of cell suspension with 12 ml IF-h, to produce six suspensions having 3,000,000 cells/ml (undiluted), 1,500,000 cells/ml, 750,000 cells/ml, 375,000 cells/ml, 187,500 cells/ml, and 93,750 cells/ml. A “no cell” control was also prepared, using 12 ml inoculating fluid. Each of the cell suspensions was then immediately inoculated into a PM1a PHENOTYPE MICROARRAY testing panel (Biolog), with about 100 μl of suspension added per well.
After approximately 4.5 hours of incubation at 37° C. in a CO2 incubator, the PHENOTYPE MICROARRAY testing panels were visually examined. […] The amount of background pink color was somewhat varied, depending upon the cell concentration. At the highest cell densities, there was a light pink color in all of the wells.

[11] = tested on: A549 cells; assay: Metabolic profile of A549 cells with 5% or 20% dialyzed or non-dialyzed FCS; format: cell-based; details: FCS 5% or 20%, dialyzed or not (FIG. 10)
Procedure: Briefly, A549 cells were suspended at 400,000 cells/mL in RPMI-salts+RPMI-vitamins+1× Pen/Strep (Penicillin/Streptomycin) without amino acids but containing either 5% or 20% dialyzed or non-dialyzed FCS. Cells were dispensed in 50 uL to wells containing a plurality of testing substrates (glycogen, glucose and pyruvate among others) at final concentrations of 20, 15, 10.5, 2.5 and 1.2 mM of each testing substrate. The cells were incubated for 2 days at 37° C. under 5% CO2-95% air (pre-incubation phase), before a redox dye mix was added. The cells were incubated for an additional 5 hr at 37° C. under 5% CO2-95% air (incubation phase), before color development was measured.

Compound: O=C(O)CC(O)(CC(=O)O)C(=O)O [Citric acid]
- carbon source utilization [1]: −
- activity at 30 µM [2]: 103%
- activity at 100 µM [2]: 111%
- activity at 330 µM [2]: 112%
- activity at 1000 µM [2]: 116%
- activity at 3300 µM [2]: 131%
- activity at 10000 µM [2]: 46.8%
- activity at 15000 µM [2]: 31.5%
- activity at 20000 µM [2]: 20.3%
- response in words ([3]; L-glutamine 13.7 mM (well E1), citric acid 10.4 mM (well F2)): inhibitory response

Compound: OC[C@H]1O[C@@H](n2cnc3c(O)ncnc32)[C@H](O)[C@@H]1O [Inosine]
- growth stimulation (well color) [4]: turned weakly purple
- carbon source utilization [1]: +
- rate of substrate use (dye reduction) [5]: used more rapidly in the presence of amino acids
- suitability as nitrogen source (growth, purple color) [6]: not suitable

Compound: CSCC[C@H](N)C(=O)O [L-methionine]
- suitability as sulfur source (growth, purple color) [7]: positive
- suitability as nitrogen source (growth, purple color) [6]: not suitable
- stimulation of growth/respiration (pink color) [8]: increased pink color

Compound: O=C1CC[C@@H](C(=O)O)N1 [L-pyroglutamic acid]
- response of TK-1 cells [9]: gained responses
- suitability as nitrogen source (growth, purple color) [6]: not suitable
- response of HL-60 cells [3]: unable to respond

Compound: CC(=O)C(=O)O [Pyruvic acid]
- cellular morphology (microscopic) [10]: the cells looked healthy
- carbon source utilization [1]: +
- dye reduction [11]: stimulated A549 cell mediated dye reduction
- rate of substrate use (dye reduction) [5]: used more rapidly in the absence of amino acids

Compound: N[C@@H](CCC(=O)N[C@@H](CS)C(=O)NCC(=O)O)C(=O)O [glutathione (reduced form)]
- suitability as sulfur source (growth, purple color) [7]: positive
- suitability as nitrogen source (growth, purple color) [6]: not suitable
- stimulation of growth/respiration (pink color) [8]: increased pink color

Compound: Cc1ncc(CO)c(CO)c1O [pyridoxine]
- stimulation of growth/respiration (pink color) [8]: increased pink color

Compound: OC[C@H]1O[C@H](O)[C@H](O)[C@@H](O)[C@@H]1O [α-D-glucose]
- color of well ([10]; 24 hours of incubation): distinctly darker clump of red cells
- cellular morphology (microscopic) [10]: the cells looked healthy
- carbon source utilization [1]: +
- dye reduction [11]: stimulated A549 cell mediated dye reduction
- activity at 30 µM [2]: 96.3%
- activity at 100 µM [2]: 112%
- activity at 330 µM [2]: 126%
- activity at 1000 µM [2]: 122%
- activity at 3300 µM [2]: 132%
- activity at 10000 µM [2]: 110%
- activity at 15000 µM [2]: 84%
- activity at 20000 µM [2]: 50.3%

Compound: NCCCC(=O)O [γ-aminobutyric acid]
- response of TK-1 cells [9]: gained responses
- response of HL-60 cells [3]: unable to respond

Compound: glycogen
- response of TK-1 cells [9]: lost responses
- dye reduction [11]: stimulated A549 cell mediated dye reduction
